Data published in the supplement of paper PMC10307832.

Assays:
Assay in all cases: relative viability (nuclei count vs DMSO), 5 days (fraction); higher = more cells survive
[1] = compound: OCc1c[nH]c2ccccc12 [Indole-3-carbinol] + Cc1nc(Nc2ncc(C(=O)Nc3c(C)cccc3Cl)s2)cc(N2CCN(CCO)CC2)n1 [Dasatinib] (partner 0.075 µM)
Summary of the method: (§1)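 Dosing by pin tool came one day after lung cancer cell lines were seeded in 1536-well plates, using either one drug or a fixed anchor-drug dose plus five library-drug doses (not always all listed) in √10 steps. After 5 days, nuclei were counted on 4× images. Relative viability is treated-well nuclei count divided by vehicle-well nuclei count, and values are medians of duplicate plates.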

[2] = compound: OCc1c[nH]c2ccccc12 [Indole-3-carbinol] + Cc1cc(Nc2cc(N3CCN(C)CC3)nc(Sc3ccc(NC(=O)C4CC4)cc3)n2)n[nH]1 [Tozasertib] (partner 0.1 µM)
Summary of the method: as §1

[3] = compound: OCc1c[nH]c2ccccc12 [Indole-3-carbinol] + O=C(c1cc(Cc2n[nH]c(=O)c3ccccc23)ccc1F)N1CCN(C(=O)C2CC2)CC1 [Olaparib] (partner 8 µM)
Summary of the method: as §1

[4] = compound: OCc1c[nH]c2ccccc12 [Indole-3-carbinol] + O=C(CCCCCCC(=O)Nc1ccccc1)NO [Vorinostat] (partner 1 µM)
Summary of the method: as §1

[5] = compound: OCc1c[nH]c2ccccc12 [Indole-3-carbinol] + C[C@]1(O)C[C@@H](c2nc(-c3ccc4ccc(-c5ccccc5)nc4c3)c3c(N)nccn32)C1 [Linsitinib] (partner 1 µM)
Summary of the method: as §1

Cell Line	relative viability ([1]; first compound 0.253 µM)	relative viability ([1]; first compound 0.8 µM)	relative viability ([1]; first compound 2.53 µM)	relative viability ([1]; first compound 8 µM)	relative viability ([2]; first compound 0.253 µM)	relative viability ([2]; first compound 0.8 µM)	relative viability ([2]; first compound 2.53 µM)	relative viability ([2]; first compound 8 µM)	relative viability ([3]; first compound 0.253 µM)	relative viability ([3]; first compound 0.8 µM)	relative viability ([3]; first compound 2.53 µM)	relative viability ([3]; first compound 8 µM)	relative viability ([4]; first compound 0.253 µM)	relative viability ([4]; first compound 0.8 µM)	relative viability ([4]; first compound 2.53 µM)	relative viability ([4]; first compound 8 µM)	relative viability ([5]; first compound 0.253 µM)	relative viability ([5]; first compound 0.8 µM)	relative viability ([5]; first compound 2.53 µM)	relative viability ([5]; first compound 8 µM)
NCI-H2085	0.259	0.225	0.256	0.262	0.848	0.914	0.887	0.79	0.9	0.844	0.773	0.691	0.867	0.751	0.753	0.687	0.828	0.897	0.982	0.779
NCI-H2087	0.985	0.942	0.936	0.78	0.214	0.294	0.283	0.296	0.575	0.631	0.625	0.541	0.837	1.09	0.86	0.655	1.07	1.04	1.01	0.915
NCI-H2126	0.618	0.683	0.592	0.632	0.849	0.876	0.793	0.866	0.859	1	0.934	0.87	0.734	0.834	0.718	0.752	0.694	0.715	0.68	0.702
NCI-H2228	0.501	0.637	0.595	0.562	0.208	0.303	0.254	0.265	0.659	0.707	0.532	1.01	0.728	0.682	0.788	0.571	0.513	0.934	0.96	0.604
NCI-H2347	0.303	0.26	0.313	0.344	0.614	0.54	0.571	0.538	0.624	0.582	0.634	0.549	0.521	0.638	0.526	0.506	0.986	1.06	1.04	0.793
NCI-H2405	0.212	0.211	0.2	0.214	0.751	0.806	0.758	0.776	0.907	0.889	0.908	0.823	1	1.03	0.971	0.978	0.945	0.805	0.903	0.89
NCI-H3122	0.839	0.771	0.969	0.851	0.398	0.383	0.483	0.372	0.65	0.612	0.495	0.538	1.05	1.05	1.06	0.885	1.02	1.03	1.07	1.04
PC-3 [JPC-3]	0.979	1.02	0.986	0.949	0.873	0.981	0.879	0.866	1.17	1.29	1.11	1.03	0.827	0.926	0.801	0.875	0.948	0.985	0.922	0.887
